Results taken from patent publication US9365574B2, “Soluble guanylate cyclase activators” (Merck Sharp & Dohme Corp., priority 2010, dated 2016).

test system: Spontaneously hypertensive rats (SHR); assay: Acute Efficacy in Spontaneously Hypertensive Rats (SHR), telemetry blood pressure; type: in vivo, rat; conditions: single oral dose 0.1 mpk P.O.
Description: Acute Efficacy in Spontaneously Hypertensive Rats (SHR)
Spontaneously hypertensive rats (SHR, male, Charles River) were implanted with DSI TA11PA-C40 telemetry device (Data Sciences, Inc., St. Paul, Minn.) under isoflurane or ketamine/metomidine anesthesia. The telemetry unit catheter was inserted into the descending aorta via the femoral artery and the telemetry device was implanted subcutaneously in the left flank area. Animals were allowed to recover from surgery for 14 days before the start of any studies. Blood pressure, heart rate, and activity signals from conscious, freely moving rats were recorded continuously for 30 seconds every 10 minutes. On the day prior to administration of compound, a single oral dose of vehicle (10% transcutol/20% Cremophor/70% water) was administered to all animals to establish baseline control data. The blood pressure lowering efficacy of compound (PO) or vehicle was evaluated following a single oral gavage. Data were collected as hourly averages, and changes in blood pressure were calculated by subtracting control baseline data on an hourly basis. Animals were maintained on normal diet with a 12 hour light-dark cycle.
Maximum peak decreases of systolic blood pressure (SBP) in SHR at a particular P.O. dose (mpk milligrams per kilogram) for the following representative compounds are provided.

Row | SMILES | Maximum peak decrease of systolic blood pressure (SBP) in SHR, Category
1 | CC1(c2nnc(C(F)F)o2)C(=O)Nc2nc(-c3nn(CCC(F)(F)C(F)(F)F)c4ncccc34)nc(N)c21 (stereo not drawn) [Example 212, 4-amino-5-[5-(difluoromethyl)-1,3,4-oxadiazol-2-yl]-5-methyl-2-[1-(3,3,4,4.4-pentafluorobutyl)-1H-pyrazolo[3,4-b]pyridin-3-yl]-5,7-dihydro-6H-pyrrolo(2,3-d]pyrimidin-6-one] | B (Category B=SBP in SHRs 25-40 mmHg)
2 | CC1(C(N)=O)C(=O)Nc2nc(-c3nn(CCC(F)(F)C(F)(F)F)c4nc(Cl)ccc34)nc(N)c21 (stereo not drawn) [Example 214, 4-amino-2-[6-chloro-1-(3,3,4,4,4-pentafluorobutyl)-1H-pyrazolo[3,4-b]pyridin-3-yl]-5-methyl-6-oxo-6,7-dihydro-5H-pyrrolo[2,3-d]pyrimidine-5-carboxamide] | A (Category A=SBP in SHRs<25 mmHg)
3 | CC1(c2nnc(CC(F)(F)F)o2)C(=O)Nc2nc(-c3nn(CCC(F)(F)C(F)(F)F)c4ncccc34)nc(N)c21 (stereo not drawn) [Example 216, 4-amino-5-methyl-2-[1-(3,3,4,4,4-pentafluorobutyl)-1H-pyrazolo[3,4-b]pyridin-3-yl]-5-[5-(2,2,2-trifluoroethyl)-1,3,4-oxadiazol-2-yl]-5,7-dihydro-6H-pyrrolo[2,3-d]pyrimidin-6-one] | A (Category A=SBP in SHRs<25 mmHg)

same assay, conditions: single oral dose 0.3 mpk P.O.

Row | SMILES | Maximum peak decrease of systolic blood pressure (SBP) in SHR, Category
4 | CC1(C(=O)NC2CCC2)C(=O)Nc2nc(-c3nn(CCC(F)(F)C(F)(F)F)c4cc(Cl)ccc34)nc(N)c21 (stereo not drawn) [Example 196, 4-amino-2-[6-chloro-1-(3,3,4,4,4-pentafluorobutyl)-1H-indazol-3-yl]-N-cyclobutyl-5-methyl-6-oxo-6,7-difluoro-5H-pyrrolo[2,3-d]pyrimidine-5-carboxamide] | B (Category B=SBP in SHRs 25-40 mmHg)
5 | CC(C)NC(=O)C1(C)C(=O)Nc2nc(-c3nn(CCC(F)(F)C(F)(F)F)c4ncccc34)nc(N)c21 (stereo not drawn) [Example 197, 4-amino-5-methyl-N-(1-methylethyl)-6-oxo-2-[1-(3,3,4,4,4-pentafluorobutyl)-1H-pyrazolo[3,4-b]pyridin-3-yl]-6,7-dihydro-5H-pyrrolo[2,3-d]pyrimidine-5-carboxamide] | B (Category B=SBP in SHRs 25-40 mmHg)
6 | Cc1nnc(C2(C)C(=O)Nc3nc(-c4nn(CCC(F)(F)F)c5cc(Cl)ccc45)nc(N)c32)o1 (stereo not drawn) [Example 198, 4-amino-2-[6-chloro-1-(3,3,3-trifluoropropyl)-1H-indazol-3-yl]-5-methyl-5-(5-methyl-1,3,4-oxadiazol-2-yl)-5,7-dihydro-6H-pyrrolo[2,3-d]pyrimidin-6-one] | B (Category B=SBP in SHRs 25-40 mmHg)
7 | CC(C)n1nc(C2(C)C(=O)Nc3nc(-c4nn(CCC(F)(F)C(F)(F)F)c5ccncc45)nc(N)c32)oc1=O (stereo not drawn) [Example 199, 4-amino-5-methyl-5-[4-(1-methylethyl)-5-oxo-4,5-dihydro-1,3,4-oxadiazol-2-yl]-2-[1-(3,3,4,4,4-pentafluorobutyl)-1H-pyrazolo[3,4-d]pyridin-3-yl]-5,7-dihydro-6H-pyrrolo[2,3-d]pyrimidin-6-one] | B (Category B=SBP in SHRs 25-40 mmHg)
8 | CC1(C(=O)NC2CC2)C(=O)Nc2nc(-c3nn(CCOC(F)(F)F)c4ncccc34)nc(N)c21 (stereo not drawn) [Example 200, 4-amino-N-cyclopropyl-5-methyl-6-oxo-2-{1-[2-(trifluoromethoxy)ethyl]-1H-pyrazolo[3,4-6]pyridin-3-yl}-6,7-dihydro-5H-pyrrolo[2,3-d]pyrimidine-5-carboxamide] | C (Category C=SBP in SHRs>40 mmHg)
9 | CC1(N)C(=O)Nc2nc(-c3nn(CCC(F)(F)C(F)(F)F)c4cc(Cl)ccc34)nc(N)c21 (stereo not drawn) [Example 201, 4,5-diamino-2-[6-chloro-1-(3,3,4,4,4-pentafluorobutyl)-1H-indazol-3-yl]-5-methyl-5,7-dihydro-6H-pyrrolo[2,3-d]pyrimidin-6-one] | A (Category A=SBP in SHRs<25 mmHg)
10 | CC1(NCC2CC2)C(=O)Nc2nc(-c3nn(CCC(F)(F)C(F)(F)F)c4cc(Cl)ccc34)nc(N)c21 (stereo not drawn) [Example 202, 4-amino-2-[6-chloro-1-(3,3,4,4,4-pentafluorobutyl)-1H-indazol-3-yl)-5-[(cyclopropylmethyl)amino]-5-methyl-5,7-dihydro-6H-pyrrolo[2,3-d]pyrimidin-6-one] | C (Category C=SBP in SHRs>40 mmHg)
11 | CC1(c2nnc(C(F)(F)F)o2)C(=O)Nc2nc(-c3nn(CCC(F)(F)C(F)(F)F)c4ccncc34)nc(N)c21 (stereo not drawn) [Example 203, 4-amino-5-methyl-2-[1-(3,3,4,4,4-pentafluorobutyl)-1H-pyrazolo[3,4-d]pyridin-3-yl]-5-[5-(trifluoromethyl)-1,3,4-oxadiazol-2-yl)-5,7-dihydro-6H-pyrrolo[2,3-d]pyrimidin-6-one] | C (Category C=SBP in SHRs>40 mmHg)
12 | CC1(c2nnco2)C(=O)Nc2nc(-c3nn(CCC(F)(F)C(F)(F)F)c4ncccc34)nc(N)c21 (stereo not drawn) [Example 204, 4-amino-5-methyl-5-(1,3,4-oxadiazol-2-yl)-2-[1-(3,3,4,4,4-pentafluorobutyl)-1H-pyrazolo[3,4-b]pyridin-3-yl]-5,7-dihydro-6H-pyrrolo[2,3-d]pyrimidin-6-one] | B (Category B=SBP in SHRs 25-40 mmHg)
13 | Cc1nc(C2(C)C(=O)Nc3nc(-c4nn(CCC(F)(F)C(F)(F)F)c5ncccc45)nc(N)c32)sc1C (stereo not drawn) [Example 206, 4-amino-5-(4,5-dimethyl-1,3-thiazol-2-yl)-5-methyl-2-[1-(3,3,4,4,4-pentafluorobutyl)-1H-pyrazolo[3,4-b]pyridin-3-yl]-5,7-dihydro-6H-pyrrolo[2,3-d]pyrimidin-6-one] | C (Category C=SBP in SHRs>40 mmHg)
14 | CC1(c2nc(C(F)(F)F)no2)C(=O)Nc2nc(-c3nn(CCC(F)(F)C(F)(F)F)c4ncccc34)nc(N)c21 (stereo not drawn) [Example 207, 4-amino-5-methyl-2-[1-(3,3,4,4,4-pentafluorobutyl)-1H-pyrazolo[3,4-b]pyridin-3-yl]-5-[3-(trifluoromethyl)-1,2,4-oxadiazol-5-yl]-5,7-dihydro-6H-pyrrolo[2,3-d]pyrimidin-6-one] | C (Category C=SBP in SHRs>40 mmHg)
15 | Cn1ccc(NC(=O)C2(C)C(=O)Nc3nc(-c4nn(CCOC(F)(F)F)c5ncccc45)nc(N)c32)n1 (stereo not drawn) [Example 210, 4-amino-5-methyl-N-(1-methyl-1H-pyrazol-3-yl)-6-oxo-2-{1-[2-(trifluoromethoxy)ethyl]-1H-pyrazolo[3,4-b]pyridin-3-yl}-6,7-dihydro-5H-pyrrolo[2,3-d]pyrimidine-5-carboxamide] | B (Category B=SBP in SHRs 25-40 mmHg)
16 | CCc1nnc(C2(C)C(=O)Nc3nc(-c4nn(CCC(F)(F)C(F)(F)F)c5ncccc45)nc(N)c32)o1 (stereo not drawn) [Example 211, 4-amino-5-(5-ethyl-1,3,4-oxadiazol-2-yl)-5-methyl-2-[1-(3,3,4,4,4-pentafluorobutyl)-1H-pyrazolo[3,4-b]pyridin-3-yl]-5,7-dihydro-6H-pyrrolo[2,3-d]pyrimidin-6-one] | C (Category C=SBP in SHRs>40 mmHg)
17 | CC(C)c1nnc(C2(C)C(=O)Nc3nc(-c4nn(CCC(F)(F)C(F)(F)F)c5ncccc45)nc(N)c32)o1 (stereo not drawn) [Example 213, 4-amino-5-methyl-5-[5-(1-methylethyl)-1,3,4-oxadiazol-2-yl]-2-[1-(3,3,4,4,4-pentafluorobutyl)-1H-pyrazolo[3,4-b]pyridin-3-yl]-5,7-dihydro-6H-pyrrolo[2,3-d]pyrimidin-6-one] | C (Category C=SBP in SHRs>40 mmHg)
18 | Cn1cc(NC(=O)C2(C)C(=O)Nc3nc(-c4nn(CCOC(F)(F)F)c5ncccc45)nc(N)c32)cn1 (stereo not drawn) [Example 215, 4-amino-5-methyl-N-(1-methyl-1H-pyrazol-4-yl)-6-oxo-2-{1-[2-(trifluoromethoxy)ethyl]-1H-pyrazolo[3,4-b]pyridin-3-yl}-6,7-dihydro-5H-pyrrolo[2,3-d]pyrimidine-5-carboxamide] | B (Category B=SBP in SHRs 25-40 mmHg)

same assay, conditions: single oral dose 1 mpk P.O.

Row | SMILES | Maximum peak decrease of systolic blood pressure (SBP) in SHR, Category
19 | CC1(C(N)=S)C(=O)Nc2nc(-c3nn(CCC(F)(F)C(F)(F)F)c4ncccc34)nc(N)c21 (stereo not drawn) [Example 205, 4-amino-5-methyl-6-oxo-2-[1-(3,3,4,4,4-pentafluorobutyl)-1H-pyrazolo[3,4-6]pyridin-3-yl]-6,7-dihydro-5H-pyrrolo[2,3-d]pyrimidine-5-carbothioamide] | C (Category C=SBP in SHRs>40 mmHg)
20 | CC1(CC(=O)NC2CC2)C(=O)Nc2nc(-c3nn(CCC(F)(F)C(F)(F)F)c4cc(Cl)ccc34)nc(N)c21 (stereo not drawn) [Example 208, 2-{4-amino-2-[6-chloro-1-(3,3,4,4,4-pentafluorobutyl)-1H-indazol-3-yl]-5-methyl-6-oxo-6,7-dihydro-5H-pyrrolo[2,3-d]pyrimidin-5-yl}-N-cyclopropylacetamide] | A (Category A=SBP in SHRs<25 mmHg)
21 | CC1(C(=O)Nc2ccccn2)C(=O)Nc2nc(-c3nn(CCOC(F)(F)F)c4ncccc34)nc(N)c21 (stereo not drawn) [Example 209, 4-amino-5-methyl-6-oxo-N-pyridin-2-yl-2-{1-[2-(trifluoromethoxy)ethyl]-1H-pyrazolo[3,4-b]pyridin-3-yl}-6,7-dihydro-5H-pyrrolo[2,3-d]pyrimidine-5-carboxamide] | B (Category B=SBP in SHRs 25-40 mmHg)
